Here are results for two compounds from patent US20080050444A1, “Pharmaceutical compositions of ilaparazole” (priority 2005, published 2008).

Data set [1] can be described thus: Particle size distribution of ilaprazole lots (Sympatec HELOS, low-angle laser light scattering). It is filed as physicochemical. Conditions: nitrogen pressure 2 bar. The procedure: The two lots of ilaprazole active ingredient were analyzed using a Sympatec HELOS particle size system with a RODOS dry powder disperser. This instrument operates using low-angle laser light scattering analyzed by Fraunhofer diffraction theory. Aliquots of approximately 0.5 g were fed into the instrument from a vibrating tray into a jet of nitrogen gas. After flowing through an interaction tube, an aerosol was formed in the path of a laser beam. The angle and intensity of diffracted light was then measured to determine the particle size distribution. As part of the method development, the particle size distribution was measured as a function of nitrogen gas pressure, and a pressure of 2 bar was determined to adequately break apart loosely adhered particles without significant milling of the sample. The results are shown below in Table 1 and in FIG. 1. The particle sizes are listed as x10, x50 and x90, the diameter where 10%, 50% and 90% of the volume of the material is in a particle smaller than the listed size.

The conditions of data set [2]: acid or neutral conditions; known in the art; cited from earlier work.

For `COc1ccnc(C[S+]([O-])c2nc3cc(-n4cccc4)ccc3[nH]2)c1C` (stereo not shown) [Lot A, ilaprazole], the “x10 Mean” value in data set [1] (diameter where 10% of the volume of the material is in a particle smaller than the listed size) is given as 1.01 μm. Further, the “x50 Mean” value in data set [1] (diameter where 50% of the volume of the material is in a particle smaller than the listed size) amounted to 3.74 μm. Also, in data set [1] (diameter where 90% of the volume of the material is in a particle smaller than the listed size), the “x90 Mean” value is given as 14.79 μm.

As to `COc1ccnc(C[S+]([O-])c2nc3cc(-n4cccc4)ccc3[nH]2)c1C` (stereo not shown) [ilaprazole, 2-[[(4-methoxy-3-methyl)-2-pyridyl]methylsufinyl]-5-(1H-pyrrol-1-yl)benzimidazole], the stability result in data set [2] is given as “unstable under acid or neutral conditions”.
